In PubChem BioAssay AID330 (DTP/NCI, 2004):
Values joined by “and” are separate entries in the source; they are usually repeats but may differ in a detail not shown here. Equal entries are not always repeated. Inconclusive results and toxic doses are left out.

System: P388 leukemia ip, CD2F1 mice, survival T/C
Test: NCI In Vivo Anticancer Drug Screen. Data for tumor model P388 Leukemia (intraperitoneal) in CD2F1 (CDF1) mice
Details: endpoint: median survival time, higher = longer survival
Method in brief: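 Mice carrying the transplanted tumor received test compound or vehicle. Survival was recorded in each group, and the value is the treated-group measurement divided by that of the vehicle-treated control group.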

[1] = dose: 50.0 mg/kg/injection, schedule: Q01DX005 (ip), vehicle: saline
[2] = dose: 100.0 mg/kg/injection, schedule: Q01DX005 (ip), vehicle: saline
[3] = dose: 50.0 mg/kg/injection, schedule: Q01DX005 (ip), vehicle: saline with Tween-80
[4] = dose: 100.0 mg/kg/injection, schedule: Q01DX005 (ip), vehicle: saline with Tween-80
[5] = dose: 200.0 mg/kg/injection, schedule: Q01DX005 (ip), vehicle: saline with Tween-80
[6] = dose: 50.0 mg/kg/injection, schedule: Q01DX005 (ip), vehicle: Klucel (hydroxypropylcellulose) (HPC)
[7] = dose: 12.5 mg/kg/injection, schedule: Q01DX009 (ip), vehicle: saline with Tween-80
[8] = dose: 25.0 mg/kg/injection, schedule: Q01DX009 (ip), vehicle: saline with Tween-80
[9] = dose: 50.0 mg/kg/injection, schedule: Q01DX009 (ip), vehicle: saline with Tween-80
[10] = dose: 100.0 mg/kg/injection, schedule: Q01DX009 (ip), vehicle: saline with Tween-80

SMILES: NC1CCCCCC1
- T/C [1]: 110 % of control
- T/C [2]: 86 % of control

SMILES: CC(C)=CCC/C(C)=C/COc1ccc(/C=C2/C(=O)N(O)[C@@H](C)C(=O)N2O)cc1
- T/C (dose: 6.25 mg/kg/injection, schedule: Q01DX009 (ip), vehicle: saline): 123 % of control and 97 % of control
- T/C (dose: 12.5 mg/kg/injection, schedule: Q01DX009 (ip), vehicle: saline): 99 % of control
- T/C (dose: 25.0 mg/kg/injection, schedule: Q01DX009 (ip), vehicle: saline): 108 % of control

SMILES: CN(C)CCCOC1(Cc2ccc(F)cc2)CCCCCC1
- T/C [3]: 102 % of control
- T/C [4]: 102 % of control

SMILES: O=C1NC(=O)C23CCCCc4cccc(c42)C(=O)C13 (configuration not stated)
- T/C (dose: 25.0 mg/kg/injection, schedule: Q01DX005 (ip), vehicle: water): 100 % of control
- T/C (dose: 50.0 mg/kg/injection, schedule: Q01DX005 (ip), vehicle: water): 99 % of control
- T/C (dose: 100.0 mg/kg/injection, schedule: Q01DX005 (ip), vehicle: water): 103 % of control
- T/C (dose: 200.0 mg/kg/injection, schedule: Q01DX005 (ip), vehicle: water): 100 % of control

SMILES: CC(CCCN)Nc1cc(O)cc2cccnc12 (configuration not stated)
- T/C (dose: 100.0 mg/kg/injection, schedule: Q01DX001 (ip), vehicle: saline): 92 % of control
- T/C (dose: 200.0 mg/kg/injection, schedule: Q01DX001 (ip), vehicle: saline): 92 % of control
- T/C (dose: 400.0 mg/kg/injection, schedule: Q01DX001 (ip), vehicle: saline): 89 % of control

SMILES: Nc1c(C(=O)NCCc2ccccc2)c2nc3c(C(=O)NCCc4ccccc4)cccc3oc-2cc1=O
- T/C [3]: 96 % of control
- T/C [4]: 89 % of control
- T/C [5]: 105 % of control

SMILES: CC(=O)/C(=C\c1ccc(C)cc1)C(=O)CCN(C)C
- T/C [1]: 108 % of control
- T/C [2]: 108 % of control
- T/C (dose: 200.0 mg/kg/injection, schedule: Q01DX005 (ip), vehicle: saline): 111 % of control

SMILES: NC(CSCCNc1ccc([N+](=O)[O-])cc1[N+](=O)[O-])C(=O)O (configuration not stated)
- T/C (dose: 25.0 mg/kg/injection, schedule: Q04DX003 (ip), vehicle: Klucel (hydroxypropylcellulose) (HPC)): 99 % of control
- T/C (dose: 50.0 mg/kg/injection, schedule: Q04DX003 (ip), vehicle: Klucel (hydroxypropylcellulose) (HPC)): 100 % of control
- T/C (dose: 100.0 mg/kg/injection, schedule: Q04DX003 (ip), vehicle: Klucel (hydroxypropylcellulose) (HPC)): 89 % of control
- T/C (dose: 200.0 mg/kg/injection, schedule: Q04DX003 (ip), vehicle: Klucel (hydroxypropylcellulose) (HPC)): 99 % of control

SMILES: C[CH2][Sn]([CH2]C)([CH2]C)[NH]S(=O)(=O)c1ccc(C)cc1
- T/C (dose: 3.12 mg/kg/injection, schedule: Q01DX009 (ip), vehicle: Klucel (hydroxypropylcellulose) (HPC)): 105 % of control

SMILES: CC(=O)/C(=C\c1ccc(Cl)c(Cl)c1)C(=O)C(C)CN(C)C (configuration not stated)
- T/C (dose: 12.5 mg/kg/injection, schedule: Q01DX005 (ip), vehicle: saline with Tween-80): 119 % of control and 120 % of control
- T/C (dose: 25.0 mg/kg/injection, schedule: Q01DX005 (ip), vehicle: saline with Tween-80): 118 % of control
- T/C [3]: 115 % of control and 116 % of control and 121 % of control

SMILES: N#CC1=C(O)/C(=C\c2ccc(Cl)c(Cl)c2)N=C1N
- T/C [3]: 89 % of control
- T/C [4]: 90 % of control
- T/C [5]: 97 % of control

SMILES: CN(Cc1c(O)ccc2ccccc12)Cc1c(O)ccc2ccccc12
- T/C [3]: 97 % of control
- T/C [4]: 109 % of control
- T/C [5]: 100 % of control

SMILES: CC1=NOC2C1Sc1ccccc1N2C (configuration not stated)
- T/C [6]: 103 % of control
- T/C (dose: 100.0 mg/kg/injection, schedule: Q01DX005 (ip), vehicle: Klucel (hydroxypropylcellulose) (HPC)): 102 % of control
- T/C (dose: 200.0 mg/kg/injection, schedule: Q01DX005 (ip), vehicle: Klucel (hydroxypropylcellulose) (HPC)): 100 % of control

SMILES: O=C1C(c2cnccn2)=C(O)c2ccccc21
- T/C (dose: 15.0 mg/kg/injection, schedule: Q01DX005 (ip), vehicle: saline with Tween-80): 91 % of control
- T/C (dose: 30.0 mg/kg/injection, schedule: Q01DX005 (ip), vehicle: saline with Tween-80): 97 % of control
- T/C (dose: 60.0 mg/kg/injection, schedule: Q01DX005 (ip), vehicle: saline with Tween-80): 100 % of control and 90 % of control

SMILES: O=C1C(=O)N(c2ccccc2)[C@]2(c3ccccc3)C1=C(c1ccccc1)N(c1ccccc1)C(=O)N2c1ccccc1
- T/C [3]: 97 % of control
- T/C [4]: 88 % of control
- T/C [5]: 88 % of control

SMILES: O=S1(=O)C2CCCCC2C2CCCCC21 (configuration not stated)
- T/C (dose: 100.0 mg/kg/injection, schedule: Q01DX001 (ip), vehicle: saline with Tween-80): 108 % of control
- T/C (dose: 200.0 mg/kg/injection, schedule: Q01DX001 (ip), vehicle: saline with Tween-80): 106 % of control
- T/C (dose: 400.0 mg/kg/injection, schedule: Q01DX001 (ip), vehicle: saline with Tween-80): 113 % of control

SMILES: O=C1C2C3CCC(C2C(=O)N1CO)C1C2C(=O)N(CO)C(=O)C2C31 (configuration not stated)
- T/C [7]: 105 % of control
- T/C [8]: 102 % of control and 116 % of control
- T/C [9]: 166 % of control
- T/C [10]: 205 % of control and 208 % of control

SMILES: C#Cc1cccc(NC(=O)c2ccc(Cl)cc2Cl)c1
- T/C (dose: 60.0 mg/kg/injection, schedule: Q01DX005 (ip), vehicle: Klucel (hydroxypropylcellulose) (HPC)): 100 % of control
- T/C (dose: 120.0 mg/kg/injection, schedule: Q01DX005 (ip), vehicle: Klucel (hydroxypropylcellulose) (HPC)): 104 % of control
- T/C (dose: 240.0 mg/kg/injection, schedule: Q01DX005 (ip), vehicle: Klucel (hydroxypropylcellulose) (HPC)): 105 % of control

SMILES: CCC(C)N(CCCOC(=O)c1ccc(N)cc1)C(C)CC (configuration not stated)
- T/C [7]: 109 % of control
- T/C (dose: 12.5 mg/kg/injection, schedule: Q04DX003 (ip), vehicle: saline): 100 % of control
- T/C [8]: 100 % of control
- T/C (dose: 25.0 mg/kg/injection, schedule: Q04DX003 (ip), vehicle: saline): 91 % of control
- T/C [9]: 104 % of control
- T/C (dose: 50.0 mg/kg/injection, schedule: Q04DX003 (ip), vehicle: saline): 91 % of control

SMILES: CNC(=S)N(C1CCCCC1)C1CCCCC1
- T/C [9]: 103 % of control
- T/C [10]: 105 % of control
- T/C (dose: 200.0 mg/kg/injection, schedule: Q01DX009 (ip), vehicle: saline with Tween-80): 100 % of control

SMILES: CN(C)CCCN1c2ccccc2C2CC2c2ccccc21 (configuration not stated)
- T/C (dose: 5.0 mg/kg/injection, schedule: Q01DX009 (ip), vehicle: saline with Tween-80): 100 % of control
- T/C [10]: 98 % of control

SMILES: O=C(O)c1cc(Nc2ccnc3cc(Cl)ccc23)ccc1O
- T/C (dose: 100.0 mg/kg/injection, schedule: Q04DX002 (ip), vehicle: saline with Tween-80): 98 % of control
- T/C (dose: 200.0 mg/kg/injection, schedule: Q04DX002 (ip), vehicle: saline with Tween-80): 97 % of control
- T/C (dose: 400.0 mg/kg/injection, schedule: Q04DX002 (ip), vehicle: saline with Tween-80): 98 % of control

SMILES: Cn1c(N)c(N=O)c(=O)n(C)c1=O
- T/C (dose: 90.0 mg/kg/injection, schedule: Q01DX009 (ip), vehicle: saline with Tween-80): 90 % of control
- T/C (dose: 180.0 mg/kg/injection, schedule: Q01DX009 (ip), vehicle: saline with Tween-80): 95 % of control
- T/C (dose: 360.0 mg/kg/injection, schedule: Q01DX009 (ip), vehicle: saline with Tween-80): 95 % of control

SMILES: CCOC(Cn1cc([N+](=O)[O-])c(=O)[nH]c1=O)OCC
- T/C (dose: 25.0 mg/kg/injection, schedule: Q01DX005 (ip), vehicle: Klucel (hydroxypropylcellulose) (HPC)): 90 % of control
- T/C [6]: 95 % of control

SMILES: CCCN1C(=O)C2C3CCC(O3)C2C1=O (configuration not stated)
- T/C (dose: 60.0 mg/kg/injection, schedule: Q01DX005 (ip), vehicle: saline): 100 % of control
- T/C (dose: 120.0 mg/kg/injection, schedule: Q01DX005 (ip), vehicle: saline): 109 % of control
- T/C (dose: 240.0 mg/kg/injection, schedule: Q01DX005 (ip), vehicle: saline): 98 % of control

SMILES: CC1NS(=O)(=O)c2ccccc2C1=O (configuration not stated)
- T/C (dose: 100.0 mg/kg/injection, schedule: Q04DX003 (ip), vehicle: saline): 100 % of control
- T/C (dose: 200.0 mg/kg/injection, schedule: Q04DX003 (ip), vehicle: saline): 101 % of control
- T/C (dose: 400.0 mg/kg/injection, schedule: Q04DX003 (ip), vehicle: saline): 108 % of control

SMILES: c1ccc2c(c1)[nH]c1c2c[n+]2c3c(cccc13)CCC2
- T/C (dose: 8.33 mg/kg/injection, schedule: Q01DX009 (ip), vehicle: saline): 115 % of control
- T/C (dose: 18.7 mg/kg/injection, schedule: Q01DX009 (ip), vehicle: saline): 95 % of control

SMILES: NC(=S)N/N=C\C(=O)c1ccccc1O
- T/C (dose: 9.4 mg/kg/injection, schedule: Q01DX009 (ip), vehicle: saline with Tween-80): 100 % of control (2×) and 101 % of control
- T/C (dose: 18.75 mg/kg/injection, schedule: Q01DX009 (ip), vehicle: saline with Tween-80): 90 % of control and 95 % of control and 98 % of control
- T/C (dose: 75.0 mg/kg/injection, schedule: Q01DX009 (ip), vehicle: saline with Tween-80): 99 % of control and 105 % of control
- T/C (dose: 150.0 mg/kg/injection, schedule: Q01DX009 (ip), vehicle: saline with Tween-80): 103 % of control

SMILES: CCOC(=O)c1csc(-c2ccc(COC(=O)c3ccccc3)o2)n1
- T/C [3]: 100 % of control
- T/C [4]: 96 % of control
- T/C [5]: 89 % of control
